This is an account of results in patent US11324724B2, “N-(2,2-difluoroethyl)-N-[(pyrimidinylamino)propanyl]arylcarboxamides” (Boehringer Ingelheim International GmbH, priority 2017, dated 2022).

This assay has as its target T1, human orexin 2 receptor (Homo sapiens, UniProt O43614).
T1 construct: stably expressing the full-length human orexin 2 receptor; expressed in transfected cells; host or cells: CHO-K1 (CHO-K1/hOx2), co-expressing aequorin
T1 sequence (O43614 1-444): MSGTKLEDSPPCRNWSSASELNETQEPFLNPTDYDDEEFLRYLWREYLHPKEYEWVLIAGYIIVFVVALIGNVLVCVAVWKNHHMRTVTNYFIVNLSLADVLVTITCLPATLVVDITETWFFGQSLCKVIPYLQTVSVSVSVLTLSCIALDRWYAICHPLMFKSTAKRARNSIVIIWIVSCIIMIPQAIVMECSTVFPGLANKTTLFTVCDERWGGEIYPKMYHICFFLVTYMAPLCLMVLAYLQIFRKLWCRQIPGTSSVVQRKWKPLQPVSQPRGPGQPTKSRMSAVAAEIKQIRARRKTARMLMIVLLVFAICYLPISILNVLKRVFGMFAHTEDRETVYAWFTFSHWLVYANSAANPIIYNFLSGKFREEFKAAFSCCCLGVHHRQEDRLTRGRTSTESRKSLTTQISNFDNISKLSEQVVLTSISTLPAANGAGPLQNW
The assay can be described thus: Assay B: in vitro testing of OX2R potency, OX2R IP1. It counts as cell-based. As to conditions: 0.5 nM Orexin A concentration. From the text:
Activation of the orexin receptors expressed in cell lines results in an increase in intracellular IP3 concentration. IP1, a downstream metabolite of IP3, accumulates in cells following receptor activation and is stable in the presence of LiCl. Using Homogeneous Time-Resolved Fluorescence technology with Lumi4-Tb cryptate (commercially available from Cisbio Bioassay.) and a suitable fluorescence plate reader. This functional response is detectable and quantifiable as described in Trinquet et al. Anal. Biochem. 2006, 358, 126-135, Degorce et al. Curr. Chem. Genomics 2009, 3, 22-32. This technique is used to characterize pharmacological modification of the orexin receptors.
B. In Vitro Testing of OX2R Potency: OX2R IP1
IP1 measurements are performed in CHO-K1 cells stably expressing the full-length human orexin 2 receptor and the aequorin photoprotein. Cells are cultivated in Ham's nutrient mixture F12 medium with 10% fetal calf serum, in a 37° C., 95% humidity and 5% CO2 incubator. The CHO-K1/hOx2 cell mass is expanded to larger cell numbers. The cells are obtained as frozen cells in cryo-vials and stored until use at −150° C. The viability of the cells after thawing is >90%. In preparation for the assay, 24 hours before the assay, the cells are thawed at 37° C. and immediately diluted with cell culture medium. After centrifugation, the cell pellet is resuspended in medium and then distributed into the assay plates with a density of 5000 cells/25 μper well. The plates are incubated for one hour at room temperature to reduce edge effects before they are incubated for 24 hours at 37° C./5% CO2. Compounds are prepared by a 8-point serial dilution in DMSO and a final dilution step into assay buffer (HBSS with 20 mM HEPES, 0.1% BSA and 50 mM LiCl, pH 7.4) to ensure a final DMSO concentration of 1% in the assay. On the day of the assay, cells in the plate are washed twice with 60 μL assay buffer (20 μL buffer remained in the wells after washing), followed by adding 5 μL per well of compounds diluted in assay buffer. After 15 minutes of incubation at room temperature 5 μL per well of Orexin A peptide (final concentration: 0.5 nM) dissolved in assay buffer is added to the assay plate. The assay plate is incubated for 60 minutes at 37° C. Then 5 μl per well of Anti-IP1-Cryptate Tb solution and 5 μl per well of IP1-d2 dilution are added to all well of the plate and the plate is incubated for a further 60 minutes light protected at room temperature. The emission at 615 nm and 665 nm (Excitation wavelength: 320 nm) are measured using an EnVision reader (PerkinElmer). The ratio between the emission at 665 nm and 615 is calculated by the reader.
8-point four parametric non-linear curve fitting and determination of IC50 values and Hill slopes is performed using a regular analysis software e.g. AssayExplorer (Accelrys). In order to establish an agonist concentration independent parameter, Kb values are calculated using the following equation: IC50/((2+(A/EC50)^n)^1/n−1) (with A=concentration agonist, EC50=EC50 agonist, n=Hill slope agonist) (see P. Leff, I. G. Dougall, Trends Pharmacol. Sci. 1993, 14(4),110-112).

The compound `C[C@@H](CNc1ncc(C(F)(F)F)cn1)N(CC(F)F)C(=O)c1cc(F)cc(F)c1-n1nccn1` [Example 1] gave a Kb of 251 nM. For `C[C@@H](CNc1ncc(C(F)(F)F)cn1)N(CC(F)F)C(=O)c1cccc(F)c1-n1nccn1` [Example 2] the value was 87.1 nM.

Turning to `C[C@@H](CNc1ncc(C(F)(F)F)cn1)N(CC(F)F)C(=O)c1cccc(F)c1-c1ncccn1` [Example 3], the Kb turned out to be 108 nM.

Compound `C[C@@H](CNc1ncc(C(F)(F)F)cn1)N(CC(F)F)C(=O)c1cc(F)ccc1-c1ncccn1` [Example 4] gave a Kb of 70.8 nM.

`C[C@@H](CNc1ncc(C(F)(F)F)cn1)N(CC(F)F)C(=O)c1c(F)cccc1-c1ncccn1` [Example 5]: the Kb came to 143 nM.
